Measurements taken from PubChem BioAssay (NCI).
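Five compound concentrations were applied to cells in 96-well plates for 48 hours; endpoints were derived by simple linear interpolation of the resulting dose-response curve. Definition used: TGI = concentration required for complete inhibition of growth.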

Key:
Assay in all cases: DTP human tumour cell line panel, 48 h
786-0 renal = system: 786-0 renal
A498 renal = system: A498 renal
A549 NSCLC = system: A549 NSCLC
ACHN renal = system: ACHN renal
CAKI-1 renal = system: CAKI-1 renal
CCRF-CEM leukemia = system: CCRF-CEM leukemia
COLO 205 colon = system: COLO 205 colon
DLD-1 colon = system: DLD-1 colon
DMS 114 small cell lung = system: DMS 114 small cell lung
EKVX NSCLC = system: EKVX NSCLC
HCC-2998 colon = system: HCC-2998 colon
HCT-116 colon = system: HCT-116 colon
HCT-15 colon = system: HCT-15 colon
HL-60(TB) leukemia = system: HL-60(TB) leukemia
HOP-62 NSCLC = system: HOP-62 NSCLC
HT29 colon = system: HT29 colon
IGROV1 ovarian = system: IGROV1 ovarian
KM12 colon = system: KM12 colon
KM20L2 colon = system: KM20L2 colon
LOX IMVI melanoma = system: LOX IMVI melanoma
LXFL 529 NSCLC = system: LXFL 529 NSCLC
M14 melanoma = system: M14 melanoma
M19-MEL melanoma = system: M19-MEL melanoma
MALME-3M melanoma = system: MALME-3M melanoma
MOLT-4 leukemia = system: MOLT-4 leukemia
NCI-H226 lung = system: NCI-H226 lung
NCI-H23 lung = system: NCI-H23 lung
NCI-H460 lung = system: NCI-H460 lung
NCI-H522 lung = system: NCI-H522 lung
OVCAR-3 ovarian = system: OVCAR-3 ovarian
OVCAR-4 ovarian = system: OVCAR-4 ovarian
OVCAR-5 ovarian = system: OVCAR-5 ovarian
OVCAR-8 ovarian = system: OVCAR-8 ovarian
RPMI-8226 leukemia = system: RPMI-8226 leukemia
RXF-631 renal = system: RXF-631 renal
SF-268 CNS = system: SF-268 CNS
SF-295 CNS = system: SF-295 CNS
SF-539 CNS = system: SF-539 CNS
SK-MEL-2 melanoma = system: SK-MEL-2 melanoma
SK-MEL-5 melanoma = system: SK-MEL-5 melanoma
SK-OV-3 ovarian = system: SK-OV-3 ovarian
SN12C renal = system: SN12C renal
SNB-19 CNS = system: SNB-19 CNS
SNB-78 CNS = system: SNB-78 CNS
SR leukemia = system: SR leukemia
SW-620 colon = system: SW-620 colon
TK-10 renal = system: TK-10 renal
U251 CNS = system: U251 CNS
UACC-257 melanoma = system: UACC-257 melanoma
UACC-62 melanoma = system: UACC-62 melanoma
UO-31 renal = system: UO-31 renal
DMS 273 small cell lung = system: DMS 273 small cell lung
HOP-18 NSCLC = system: HOP-18 NSCLC
HOP-92 NSCLC = system: HOP-92 NSCLC
K-562 leukemia = system: K-562 leukemia
RXF 393 renal = system: RXF 393 renal
SK-MEL-28 melanoma = system: SK-MEL-28 melanoma
SNB-75 CNS = system: SNB-75 CNS
XF 498 CNS = system: XF 498 CNS

In the case of CCCCC#COP(=O)(OCC)OCC, the TGI (786-0 renal) is reported as greater than 100 µM, the TGI (A498 renal) is reported as greater than 100 µM and the TGI (A549 NSCLC) is reported as greater than 100 µM. It also gave a TGI (ACHN renal) greater than 100 µM, a TGI (CAKI-1 renal) greater than 100 µM and a TGI (CCRF-CEM leukemia) greater than 100 µM. For the same compound, the TGI (COLO 205 colon) was greater than 100 µM, the TGI (DLD-1 colon) was greater than 100 µM and the TGI (DMS 114 small cell lung) was greater than 100 µM. For the same compound, the TGI (EKVX NSCLC) was greater than 100 µM, the TGI (HCC-2998 colon) was greater than 100 µM and the TGI (HCT-116 colon) was greater than 100 µM. The TGI (HCT-15 colon) was greater than 100 µM, the TGI (HL-60(TB) leukemia) was greater than 100 µM and the TGI (HOP-62 NSCLC) was greater than 100 µM. For the same compound, the TGI (HT29 colon) was greater than 100 µM, the TGI (IGROV1 ovarian) was greater than 100 µM and the TGI (KM12 colon) was greater than 100 µM. The TGI (KM20L2 colon) was greater than 100 µM, the TGI (LOX IMVI melanoma) was greater than 100 µM and the TGI (LXFL 529 NSCLC) was greater than 100 µM. For the same compound, the TGI (M14 melanoma) was greater than 100 µM, the TGI (M19-MEL melanoma) was greater than 100 µM and the TGI (MALME-3M melanoma) was greater than 100 µM. It also gave a TGI (MOLT-4 leukemia) greater than 100 µM, a TGI (NCI-H226 lung) greater than 100 µM and a TGI (NCI-H23 lung) greater than 100 µM. For the same compound, the TGI (NCI-H460 lung) was greater than 100 µM, the TGI (NCI-H522 lung) was greater than 100 µM and the TGI (OVCAR-3 ovarian) was greater than 100 µM. It also gave a TGI (OVCAR-4 ovarian) greater than 100 µM, a TGI (OVCAR-5 ovarian) greater than 100 µM and a TGI (OVCAR-8 ovarian) greater than 100 µM. For the same compound, the TGI (RPMI-8226 leukemia) was greater than 100 µM, the TGI (RXF-631 renal) was greater than 100 µM and the TGI (SF-268 CNS) was greater than 100 µM. It also gave a TGI (SF-295 CNS) greater than 100 µM, a TGI (SF-539 CNS) greater than 100 µM and a TGI (SK-MEL-2 melanoma) greater than 100 µM. It also gave a TGI (SK-MEL-5 melanoma) greater than 100 µM, a TGI (SK-OV-3 ovarian) greater than 100 µM and a TGI (SN12C renal) greater than 100 µM. The TGI (SNB-19 CNS) was greater than 100 µM, the TGI (SNB-78 CNS) was greater than 100 µM and the TGI (SR leukemia) was greater than 100 µM. It also gave a TGI (SW-620 colon) greater than 100 µM, a TGI (TK-10 renal) greater than 100 µM and a TGI (U251 CNS) greater than 100 µM. It also gave a TGI (UACC-257 melanoma) greater than 100 µM, a TGI (UACC-62 melanoma) greater than 100 µM and a TGI (UO-31 renal) greater than 100 µM.
In the case of CC1CC(c2ccccc2)=Nc2ccccc2S1(=O)=O (stereo unspecified), the TGI (786-0 renal) is reported as 30.9 µM, the TGI (A498 renal) is reported as 28.2 µM and the TGI (A549 NSCLC) is reported as 55.6 µM. For the same compound, the TGI (ACHN renal) was 30.1 µM, the TGI (CAKI-1 renal) was 48.5 µM and the TGI (CCRF-CEM leukemia) was 43.4 µM. For the same compound, the TGI (COLO 205 colon) was 40.9 µM, the TGI (DLD-1 colon) was 28.4 µM and the TGI (DMS 114 small cell lung) was 45.8 µM. The TGI (DMS 273 small cell lung) was 38.3 µM, the TGI (EKVX NSCLC) was 39.6 µM and the TGI (HCC-2998 colon) was 19.5 µM. It also gave a TGI (HCT-116 colon) of 3.13 µM, a TGI (HCT-15 colon) of 54.2 µM and a TGI (HL-60(TB) leukemia) of 52.8 µM. The TGI (HOP-18 NSCLC) was 30 µM, the TGI (HOP-62 NSCLC) was 39.8 µM and the TGI (HOP-92 NSCLC) was 48.7 µM. It also gave a TGI (IGROV1 ovarian) of 37.8 µM, a TGI (K-562 leukemia) of 41.9 µM and a TGI (KM12 colon) of 31.3 µM. For the same compound, the TGI (KM20L2 colon) was 31.7 µM, the TGI (LOX IMVI melanoma) was 31 µM and the TGI (LXFL 529 NSCLC) was 28.6 µM. For the same compound, the TGI (M14 melanoma) was 40.9 µM, the TGI (M19-MEL melanoma) was 30.5 µM and the TGI (MALME-3M melanoma) was 37.1 µM. The TGI (MOLT-4 leukemia) was 33.3 µM, the TGI (NCI-H23 lung) was 30.8 µM and the TGI (NCI-H460 lung) was 34.9 µM. It also gave a TGI (NCI-H522 lung) of 31 µM, a TGI (OVCAR-3 ovarian) of 32.8 µM and a TGI (OVCAR-4 ovarian) of 38.3 µM. For the same compound, the TGI (OVCAR-5 ovarian) was 35.7 µM, the TGI (OVCAR-8 ovarian) was 43.9 µM and the TGI (RPMI-8226 leukemia) was 5.59 µM. It also gave a TGI (RXF 393 renal) of 28.7 µM, a TGI (SF-268 CNS) of 31.4 µM and a TGI (SF-295 CNS) of 39.4 µM. It also gave a TGI (SF-539 CNS) of 34.1 µM, a TGI (SK-MEL-2 melanoma) of 31.3 µM and a TGI (SK-MEL-28 melanoma) of 29.8 µM. It also gave a TGI (SK-MEL-5 melanoma) of 32.5 µM, a TGI (SK-OV-3 ovarian) of 36.4 µM and a TGI (SN12C renal) of 34.3 µM. The TGI (SNB-19 CNS) was 28.4 µM, the TGI (SNB-75 CNS) was 35.9 µM and the TGI (SNB-78 CNS) was 30.8 µM. The TGI (SW-620 colon) was 31.6 µM, the TGI (TK-10 renal) was 47.7 µM and the TGI (U251 CNS) was 31.9 µM. The TGI (UACC-257 melanoma) was 23.8 µM, the TGI (UACC-62 melanoma) was 55.7 µM and the TGI (UO-31 renal) was 29 µM. It also gave a TGI (XF 498 CNS) of 32.7 µM.
